In ChEMBL document CHEMBL1141252, “Antitrypanosomal activity of triterpenoids and sterols from the leaves of Strychnos spinosa and related compounds” (J Nat Prod, 2007):
Activity calls are given as the source filed them. The calls are words filed in the database; no cut-off is given here.

Key:
[1] = Cytotoxicity against mouse leukemic cells; assay type: functional, cell-based; conditions: Leukemic tumor cell line
[2] = system: Trypanosoma brucei brucei; test: Antitrypanosomal activity against Trypanosoma brucei brucei bloodstream trypomastigotes by alamar blue assay; assay type: functional, organism-based
[3] = Cytotoxicity against human leukemia cells; assay type: functional, cell-based; conditions: Leukemia cell
[4] = Cytotoxicity against human lung cancer cells; assay type: functional, cell-based; conditions: Cancer cell lines
J774 = test: Cytotoxicity against mouse J774 cells by alamar blue assay; assay type: cell-based
[5] = Selectivity index, ratio of IC50 for mouse J774 cells to IC50 for Trypanosoma brucei brucei bloodstream trypomastigotes; assay type: functional
[6] = Cytotoxicity against human colon cancer cells; assay type: functional, cell-based; conditions: Cancer cell lines
[7] = system: Trypanosoma brucei rhodesiense; test: Antitrypanosomal activity against Trypanosoma brucei rhodesiense bloodstream trypomastigotes; assay type: functional, organism-based
Trypanosoma cruzi [8] = test: Antitrypanosomal activity against South American Trypanosoma cruzi bloodstream trypomastigotes at 21 uM; assay type: functional
Trypanosoma cruzi [9] = test: Antitrypanosomal activity against South American Trypanosoma cruzi bloodstream trypomastigotes at 80.4 uM; assay type: functional

Row | Structure (SMILES) | IC50 [2] [µM] | IC50 (J774) [µM] | Ratio IC50 [5] | other results
1 | C=CC(CC[C@@H](C)[C@H]1CC[C@H]2[C@@H]3CC=C4C[C@@H](O)CC[C@]4(C)[C@H]3CC[C@]12C)(OO)C(C)C (some centres undefined) | 3.2 | 16.4 | 5.2 | IC50 [1]: 700 nM; IC50 [3]: 700 nM; IC50 [4]: 700 nM; IC50 [6]: 700 nM
2 | CC[C@H](CC[C@@H](C)[C@H]1CC[C@H]2[C@@H]3CC[C@H]4C[C@@H](O)CC[C@]4(C)[C@H]3CC[C@]12C)C(C)C [STIGMASTANOL] | > 240 | > 240 | – | –
3 | CC1(C)CC[C@]2(CO)CC[C@]3(C)C(=CC[C@@H]4[C@@]5(C)CC[C@H](O)C(C)(C)[C@@H]5CC[C@]43C)[C@@H]2C1 [ERYTHRODIOL] | 12 | 50.3 | 4.2 | –
4 | C=C(C)[C@@H]1CC[C@]2(C)CC[C@]3(C)[C@H](CC[C@@H]4[C@@]5(C)CC[C@H](O)C(C)(C)[C@@H]5CC[C@]43C)[C@@H]12 [LUPEOL] | 45.3 | > 234 | >5.2 | –
5 | CC1(C)CC[C@]2(C)CC[C@]3(C)C(=CC[C@@H]4[C@@]5(C)CC[C@H](O)C(C)(C)[C@@H]5CC[C@]43C)[C@@H]2C1 [beta-AMYRIN] | 127 | > 234 | >1.8 | Activity [7]: inactive
6 | CC[C@H](CC[C@@H](C)[C@H]1CC[C@H]2[C@@H]3CC=C4C[C@@H](O)CC[C@]4(C)[C@H]3CC[C@]12C)C(C)C [BETA-SITOSTEROL] | > 241 | > 241 | – | –
7 | C=C(C)[C@@H]1CC[C@]2(CO)CC[C@]3(C)[C@H](CC[C@@H]4[C@@]5(C)CC[C@H](O)C(C)(C)[C@@H]5CC[C@]43C)[C@@H]12 [BETULIN] | 8.9 | 67.1 | 7.4 | –
8 | CC[C@H](/C=C/[C@@H](C)[C@H]1CC[C@H]2[C@@H]3CC=C4C[C@@H](O)CC[C@]4(C)[C@H]3CC[C@]12C)C(C)C [STIGMASTEROL] | 135 | > 242 | >1.8 | –
9 | CC1(C)CC[C@]2(C(=O)O)CC[C@]3(C)C(=CC[C@@H]4[C@@]5(C)CC[C@H](O)C(C)(C)[C@@H]5CC[C@]43C)[C@@H]2C1 [OLEANOLIC_ACID] | 6.4 | 130 | 20.6 | Activity (Trypanosoma cruzi [8]): 50%; Activity (Trypanosoma cruzi [9]): 50%
10 | C=CC(O)(CC[C@@H](C)[C@H]1CC[C@H]2[C@@H]3CC=C4C[C@@H](O)CC[C@]4(C)[C@H]3CC[C@]12C)C(C)C (some centres undefined) [SARINGOSTEROL] | 7.8 | > 233 | >30.3 | –
11 | C[C@H]1[C@H](C)CC[C@]2(C(=O)O)CC[C@]3(C)C(=CC[C@@H]4[C@@]5(C)CC[C@H](O)C(C)(C)[C@@H]5CC[C@]43C)[C@H]12 [URSOLIC ACID] | 2.2 | 13.1 | 6 | Activity (Trypanosoma cruzi [8]): 50%; Activity (Trypanosoma cruzi [9]): 50%
12 | C=C(C)[C@@H]1CC[C@]2(C(=O)O)CC[C@]3(C)[C@H](CC[C@@H]4[C@@]5(C)CC[C@H](O)C(C)(C)[C@@H]5CC[C@]43C)[C@@H]12 [BETULINIC ACID] | 32.6 | 44 | 1.3 | –
13 | Cc1ccc(C(=O)Nc2ccc(S(=O)(=O)O)c3cc(S(=O)(=O)O)cc(S(=O)(=O)O)c23)cc1NC(=O)c1cccc(NC(=O)Nc2cccc(C(=O)Nc3cc(C(=O)Nc4ccc(S(=O)(=O)O)c5cc(S(=O)(=O)O)cc(S(=O)(=O)O)c45)ccc3C)c2)c1 [SURAMIN] | 0.041 | – | – | –
14 | C[C@H]1[C@H](C)CC[C@]2(CO)CC[C@]3(C)C(=CC[C@@H]4[C@@]5(C)CC[C@H](O)C(C)(C)[C@@H]5CC[C@]43C)[C@H]12 [UVAOL] | 27.8 | 156 | 5.6 | –
15 | C[C@H]1[C@H](C)CC[C@]2(C)CC[C@]3(C)C(=CC[C@@H]4[C@@]5(C)CC[C@H](O)C(C)(C)[C@@H]5CC[C@]43C)[C@H]12 | 114 | 128 | 1.1 | –
16 | COc1cc2c(c(OC)c1OC)-c1ccc(OC)c(=O)cc1[C@@H](NC(C)=O)CC2 [COLCHICINE] | – | 0.21 | – | –
17 | C=C(C)[C@@H](CC)CC[C@@H](C)[C@H]1CC[C@H]2[C@@H]3CC=C4C[C@@H](O)CC[C@]4(C)[C@H]3CC[C@]12C [CLEROSTEROL] | 130 | > 242 | >1.9 | –
